Source: patent US20260232847A1, “Nanoparticles For Imaging And Treatment Of Arthritis And Inflammatory Joint Diseases” (Cornell University, priority 2023, published 2026)

Columns and labels:
[1] = in vivo; cited from earlier work
[2] = in vitro; cited from earlier work
[3] = In vivo joint clearance pharmacokinetics after intraarticular injection, longitudinal IVIS fluorescence imaging; parameters: species or system rat
Method: Animals. All procedures were performed according to protocols approved by the Institutional Animal Care and Use Committee (IACUC) or Cornell University. Sprague Dawley male rats ([…], 300-325 g; Charles River Laboratories, Wilmington, MA) were housed in pairs under a standard 12 h light/dark cycle starting at 6:00 a.m. The animals were allowed to move freely in their cages, fed a low-fluorescence commercial diet (Teklad 2914) and were allowed access to tap water.
Animal Study Design. Rats were randomly assigned to (1) unoperated controls (naïve) and (2) those receiving ipsilateral anterior cruciate ligament transection (ACLT) and contralateral sham to model arthritic pathological joint changes (FIGS. 9A and B). Naïve rats were further split into pilot studies for intraarticular bilateral injection of Cy5 free fluorophore (n=2), unilateral C′ Dot injection with contralateral saline (n=4), and bilateral C′ Dot injection (n=4). Animals that received bilateral surgery were further split into groups where one group received no intraarticular injections (n=4) and one group received bilateral intraarticular injection of C′ Dots one week post-operatively (n=6). Selected animals underwent ACLT surgery on a randomly assigned knee via an open surgical approach under 2.5% isoflurane anesthesia at 1 L/min O2, as previously described. Complete transection of the ACL was confirmed by a cranial drawer test. A single dose of Ethiqa XR (slow release buprenorphine) was administered subcutaneously at 0.65 mg/kg just prior to ACLT surgery. The animals could ambulate, eat, and drink ad libitum after surgery.
Intraarticular injection. Under 3% isoflurane anesthesia, the lower abdominal region (distal to sternum) including the front and back of both stifles was clipped to remove fur and sterilized with three alternating wipes of iodine and ethanol. […]
In vivo longitudinal fluorescence imaging. Longitudinal fluorescence images of rats receiving Cy5 or C′ Dot intraarticular injections were recorded using the In Vivo Imaging System (IVIS) Kinetic (Perkin Elmer; Waltham, MA) over one week for Cy5 injection at the following timepoints: 0, 1, 2, 4, 8, 12, 24, 48, and 72 h, and at 7 d (FIG. 9S3). […] Each week, rat fur was clipped as described above and animal weights were recorded. […] Fluorescence was set at 640 nm/680 nm excitation/emission optimized for Cyanine-5 and C′ Dots.
IVIS image analysis. […] Total Radiant Efficiency (TRE) (area sum of ((p/sec/cm^2/sr)/(ρW/cm^2))) was recorded for each stifle at each time point for the duration of imaging. Average TRE from saline-injected stifles (n=4) was subtracted from all stifle TRE measurements as tissue fluorescence background. […]

Row | time constant τ, single exponential decay ([3]; naïve knees, Eq 2) [h] | time after which fluorescence was undetectable ([3]; naïve rat knees) [days] | time of signal peak ([3]; naïve rat knees, Cy5 dye injection) [h] | half-life t1/2,1 ([3]; t1/2=ln(2)*τ) [h] | Compound | half-life in the knee / joint half-life [1] [h] | duration of anti-inflammatory effects [2] [days]
1 | – | – | – | – | anakinra: established DMARD, anakinra (Kineret) | 24 | 2
2 | 0.6 | 3 | 0 | 0.4 | CN1C(=CC=CC=CC2=[N+](CCCCCC(=O)O)c3ccc(S(=O)(=O)O)cc3C2(C)C)C(C)(C)c2cc(S(=O)(=O)[O-])ccc21 [Cy5, Sulfo-Cyanine-5-carboxylic acid] | – | –
